Results reported in ChEMBL document CHEMBL5214890 (Eur J Med Chem, 2021).

How the values were obtained:
[1] = MRT in male Sprague-Dawley rat at 25 nmol/kg, sc administered as single dose and measured after 24 hrs by LC-MS/MS analysis; type: ADME, organism-based; conditions: in vivo
[2] = AUC (inifinity) in male Sprague-Dawley rat at 25 nmol/kg, sc administered as single dose and measured after 24 hrs by LC-MS/MS analysis; type: ADME, organism-based; parameters: dose 25 nmol/kg, time 24 hrs, route sc; conditions: in vivo
[3] = Toxicity in male […] assessed as decrease in hepatic lipid content at 40 nmol/kg, sc administered twice daily for 3 weeks; type: organism-based; conditions: in vivo, 504 h

MRT [1]: 6.6 h | AUC at 24 h [2]: 3410 ng·h/mL
SMILES: CCCCCCCCCCCCCCCC(=O)N[C@@H](CCC(=O)NCCCC[C@H](NC(=O)[C@H](C)NC(=O)[C@H](C)NC(=O)[C@H](CCC(N)=O)NC(=O)CNC(=O)[C@H](CCC(=O)O)NC(=O)[C@H](CC(C)C)NC(=O)[C@H](Cc1ccc(O)cc1)NC(=O)[C@H](CO)NC(=O)[C@H](CO)NC(=O)[C@@H](NC(=O)[C@H](CC(=O)O)NC(=O)[C@H](CO)NC(=O)[C@@H](NC(=O)[C@H](Cc1ccccc1)NC(=O)[C@@H](NC(=O)CNC(=O)[C@H](CCC(=O)O)NC(=O)[C@H](C)NC(=O)[C@@H](N)Cc1cnc[nH]1)[C@@H](C)O)[C@@H](C)O)C(C)C)C(=O)N[C@@H](CCC(=O)O)C(=O)N[C@@H](Cc1ccccc1)C(=O)N[C@H](C(=O)N[C@@H](C)C(=O)N[C@@H](Cc1c[nH]c2ccccc12)C(=O)N[C@@H](CC(C)C)C(=O)N[C@H](C(=O)N[C@@H](CCCNC(=N)N)C(=O)NCC(=O)N[C@@H](CCCNC(=N)N)C(=O)NCC(=O)O)C(C)C)[C@@H](C)CC)C(=O)O
Activity [3]: Toxic
